Measurements: US6906205B2, “Spiro and dispiro 1,2,4-trioxolane antimalarials” (Medicines for Malaria Venture MMV, priority 2002, dated 2005)
Converted amounts (≈) assume the structure as drawn.

What was measured:
[1] = test system: P. falciparum NF54 strain (sensitive to standard antimalarials); assay: semiautomated microdilution assay, [3H]-hypoxanthine incorporation, NF54 strain; assay type: cell-based, Plasmodium falciparum; settings: NF54 strain, 72 h incubation
Summary of the method: (§1)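 Logit regression analysis was used to estimate IC50 values. Parasites were intraerythrocytic forms from asynchronous stock cultures, and compounds were tested by semiautomated microdilution.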

[2] = test system: ANKA strain of P. berghei; assay: single dose STI in vivo screen in infected mice; parameters: species or system Plasmodium berghei; settings: for Activity (%) po / Activity (%) sc / Activity (%) SSVpo / Activity (%) 3 mg/kg SSV po: percent reduction in parasitemia day 3 post-infection; for Activity (%) po / Survival (days) po: single 10 mg/kg po in 3% ethanol and 7% Tween 80; for Activity (%) po / Activity (%) sc / Activity (%) SSVpo: mice; for Activity (%) sc / Survival (days) sc: single 10 mg/kg sc in 3% ethanol and 7% Tween 80; for Survival (days) po / Survival (days) sc / Survival (days) SSVpo: untreated control 5.6 ± 0.3; for Activity (%) SSVpo: single po dose in standard suspending vehicle (SSV); for Survival (days) SSVpo: single po dose in SSV; for Survival (days) 10 mg/kg SSV po: single 10 mg/kg po in SSV
Summary of the method: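 Groups of 3-5 Moro SPF or NMRI mice infected with the ANKA strain of P. berghei received a single dose of trioxolane on day one post-infection. The compound was given in 3% ethanol and 7% Tween 80 or in SSV (0.5% w/v CMC, 0.5% v/v benzyl alcohol, 0.4% v/v Tween 80, 0.9% w/v sodium chloride in water). Antimalarial activity was scored as percent reduction in parasitemia on day three and as survival time versus untreated controls. Survival to day 30 counted as cure.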

[3] = test system: Schistosoma mansoni adult schistosomes (49-day-old); assay: effect on adult schistosomes (49-day-old) in mice; assay type: in vivo; settings: for % reduction of adult worms growth at day 49 after per os application of 400 mg/kg, TWR (%) / adult worms at day 49, per os 400 mg/kg, DEAD WORM (%): single 400 mg/kg per os
Protocol: Mice were infected with 100 Schistosoma mansoni cercariae […]. Each group was treated per os with OZ compounds at single doses of 200, 400, and 600 mg/kg. […] All groups were killed 4 weeks after treatment and the liver and intestine were removed and separated. The liver and intestine were compressed and alive male and female worms could be seen and counted.

[4] = test system: Schistosoma mansoni 21-day-old schistosomules; assay: effect on 21-day-old schistosomules in mice; assay type: in vivo; settings: single 200 mg/kg per os, female mice
Protocol: All groups were killed 4 weeks after treatment and the liver and intestine were removed and separated. The liver and intestine were compressed and alive male and female worms could be seen and counted. The effect of the compounds was evaluated by mean total and female worm burden.

[5] = test system: P. falciparum K1 strain (Thailand resistant to chloroquine); assay: semiautomated microdilution assay, [3H]-hypoxanthine incorporation, K1 strain; assay type: cell-based, Plasmodium falciparum; settings: K1 strain, 72 h incubation
Summary of the method: as §1

Structure (SMILES) | IC50 (ng/ml) NF54 [1] [ng/mL] | Activity (%) po [2] | Activity (%) sc [2] | Survival (days) po [2] | Survival (days) sc [2] | % reduction of adult worms growth at day 49 after per os application of 400 mg/kg, TWR (%) [3] | adult worms at day 49, per os 400 mg/kg, DEAD WORM (%) [3] | % reduction of schistosomule growth at day 21 after per os application of 200 mg/kg, FWR (%) [4] [%] | % reduction of schistosomule growth at day 21 after per os application of 200 mg/kg, TWR (%) [4] [%] | IC50 (ng/ml) K1 [5] [ng/mL] | Activity (%) SSVpo [2] [%] | Survival (days) SSVpo [2] [days] | other results
O=C1C2C3CC4C5C3C1C5C1(OOC3(O1)C1CC5CC(C1)CC3C5)C42 (stereo not shown) [OZ14] | > 100 | 23% | 96% | 6.0 days | 7.7 days | 0/0% | 0/0% | 0 | 7 | 91 (≈ 267 nM) | – | – | –
CON=C1CCC2(CC1)OOC1(O2)C2CC3CC(C2)CC1C3 (stereo not shown) [OZ15] | 1.0 (≈ 3.25 nM) | 99.8% | 99.9% | 7.4 days | 8.2 days | 0% | 10% | 70 | 63 | 0.60 (≈ 1.95 nM) | 88 | 6.8 | –
CC(C)(C)C1CCC2(CC1)OOC1(O2)C2CC3CC(C2)CC1C3 (stereo not shown) [OZ18] | 84 (≈ 262 nM) | 0/NA/0% | 0/NA/0% | 5.0 days | 5.3 days | 0/0% | 0/0% | 9 | 12 | 63 (≈ 197 nM) | – | – | –
O=C1CCC2(CC1)OOC1(CCCCCCCCCCC1)O2 [OZ21] | 25 (≈ 80.5 nM) | 0/NA/0% | 0/NA/0% | 5.0 days | 6.0 days | 0/0% | 0/0% | 20 | 18 | 14 (≈ 45.1 nM) | – | – | –
CCOC(=O)N1CCC2(CC1)OOC1(O2)C2CC3CC(C2)CC1C3 (stereo not shown) [OZ23] | 0.57 (≈ 1.69 nM) | 99.5% | 99.9% | 7.7 days | 8.9 days | 0% | 4% | 84 | 90 | 0.29 (≈ 0.859 nM) | 99.34 | 7.0 | –
O=C(c1ccccc1)N1CCC2(CC1)OOC1(O2)C2CC3CC(C2)CC1C3 (stereo not shown) [OZ24] | 0.58 (≈ 1.57 nM) | 93% | 99.9% | 7.0 days | 8.7 days | 21% | 0% | 61 | 65 | 0.35 (≈ 0.947 nM) | 66 | 6.8 | –
CCCC1CCC2(CC1)OOC1(O2)C2CC3CC(C2)CC1C3 (stereo not shown) [OZ25] | 2.1 (≈ 6.85 nM) | 99.9% | 99.97% | 8.4 days | 16.5 days | 46% | 34% | 84 | 86 | 1.1 (≈ 3.59 nM) | 96 | 7.2 | –
O=[N+]([O-])c1ccc(NN=C2CCC3(CC2)OOC2(O3)C3CC4CC(C3)CC2C4)c([N+](=O)[O-])c1 (stereo not shown) [OZ29] | 13 (≈ 28.4 nM) | 0/NA/0% | 0/NA/0% | 5.0/NA/5.0 days | 5.0/NA/5.0 days | 0/0% | 0/0% | 20 | 28 | 9.7 (≈ 21.2 nM) | – | – | –
CC1(C)COC2(CCC3(CC2)OOC2(CC(C)(C)CC(C)(C)C2)O3)OC1 [OZ36] | 62 (≈ 168 nM) | 0/NA/0% | 0/NA/0% | 5.7/NA/5.7 days | 5.7/NA/5.7 days | 0/0% | 0/0% | 12 | 16 | 24 (≈ 65.1 nM) | – | – | –
O=C(O)C1CCC2(CC1)OOC1(O2)C2CC3CC(C2)CC1C3 (stereo not shown) [OZ71] | 3.7 (≈ 12 nM) | – | – | – | – | 0% | 16% | 85 | 91 | 4.5 (≈ 14.6 nM) | 98 | 6.7 | Activity (%) po ([2]; 10 mg/kg): 98%; Activity (%) sc ([2]; 10 mg/kg): 97%; Survival (days) po ([2]; 10 mg/kg): 7.3 days; Survival (days) sc ([2]; 10 mg/kg): 8.3 days
C1CC2(CCN1)OOC1(O2)C2CC3CC(C2)CC1C3.Cl (stereo not shown) [OZ80] | 0.34 | 59% | 84% | 6.3 days | 7.7 days | – | – | 75 | 79 | 0.15 | – | – | % reduction of adult worms growth at day 49 after per os application of 200 mg/kg, TWR (%) ([3]; single 200 mg/kg per os): 0%; adult worms at day 49, per os 200 mg/kg, DEAD WORM (%) ([3]; single 200 mg/kg per os): 3%
CC(C)(N)C(=O)NC[C@H]1CC[C@]2(CC1)OOC1(O2)C2CC3CC(C2)CC1C3 (stereo partly shown) [OZ281] | 0.30 (≈ 0.793 nM) | – | – | – | – | 12% | 15% | 90 | 91 | 0.50 (≈ 1.32 nM) | – | – | Activity (%) 3 mg/kg SSV po ([2]; single 3 mg/kg po in SSV): 96%; Survival (days) 3 mg/kg SSV po ([2]; single 3 mg/kg po in SSV): 10.2 days; Survival (days) 10 mg/kg SSV po [2]: 8.7 days
O=C1CN(C[C@H]2CC[C@]3(CC2)OOC2(O3)C3CC4CC(C3)CC2C4)CCN1 (stereo partly shown) [OZ285] | 1.8 (≈ 4.78 nM) | – | – | – | – | 17% | 22% | 85 | 86 | 1.3 (≈ 3.45 nM) | – | – | Activity (%) 3 mg/kg SSV po ([2]; single 3 mg/kg po in SSV): 72%; Survival (days) 10 mg/kg SSV po [2]: 8.7 days
Oc1ccc([C@H]2CC[C@]3(CC2)OOC2(O3)C3CC4CC(C3)CC2C4)cc1 (stereo partly shown) [OZ288] | 2.7 (≈ 7.57 nM) | – | – | – | – | 52% | 45% | 96 | 95 | 1.7 (≈ 4.77 nM) | – | – | Activity (%) 3 mg/kg SSV po ([2]; single 3 mg/kg po in SSV): 82%; Survival (days) 10 mg/kg SSV po [2]: 11.0 days
